{"source": "ChEMBL document CHEMBL5584347", "about": "“Development of Nitric Oxide Releasing Oxoisoaporphines with Antidepressant Activities by Simultaneously Regulating MAO-A and SERT” (J Med Chem, 2024)", "key": {"Mus musculus [1]": {"tested_on": "Mus musculus", "experiment": "Antidepressant activity in chronic unpredictable mild stress induced depressive C57 mouse model assessed as reduction in fecal count at 5 to 10 mg/kg administered continuously for 2 weeks post 5 weeks of chronic unpredictable mild stress", "assay_type": "functional, organism-based", "settings": "dose 5-10 mg/kg"}, "Mus musculus [2]": {"tested_on": "Mus musculus", "experiment": "Antidepressant activity in chronic unpredictable mild stress induced depressive C57 mouse model assessed as increase in total distance traveled at 5 to 10 mg/kg administered continuously for 2 weeks post 5 weeks of chronic unpredictable mild stress by open field test", "assay_type": "functional, organism-based", "settings": "dose 5-10 mg/kg"}, "Mus musculus [3]": {"tested_on": "Mus musculus", "experiment": "Antidepressant activity in chronic unpredictable mild stress induced depressive C57 mouse model assessed as increase in number of upright movements at 5 to 10 mg/kg administered continuously for 2 weeks post 5 weeks of chronic unpredictable mild stress by open field test", "assay_type": "functional, organism-based", "settings": "dose 5-10 mg/kg"}, "PC-12 [4]": {"tested_on": "PC-12", "experiment": "Neuroprotective activity against corticosterone-induced cell injury in rat PC-12 cells assessed as increase in cell viability at 0.01 to 1 uM incubated for 24 hrs by CCK8 assay", "assay_type": "functional, cell-based", "settings": "dose 0.01-1 µM"}, "PC-12 [5]": {"tested_on": "PC-12", "experiment": "Neuroprotective activity against corticosterone-induced cell injury in rat PC-12 cells assessed as increase in nitric oxide content at 0.2 uM by absorbance based assay", "assay_type": "functional"}, "Danio rerio [6]": {"tested_on": "Danio rerio", "experiment": "Antidepressant activity in reserpine-induced depressive zebrafish model assessed as increase in total distance traveled at 0.5 to 1 uM preadministered with reserpine for 40 mins followed by compound administration and measured after 7 days by novel tank test", "assay_type": "functional, organism-based", "settings": "dose 0.5-1 µM, time 7.0 day"}, "[7]": {"experiment": "Toxicity in C57 mouse assessed as effect on kidney morphology at 5 to 10 mg/kg administered continuously for 2 weeks by H and E staining based analysis", "assay_type": "organism-based", "settings": "in vivo, 336 h, dose 5-10 mg/kg"}, "[8]": {"experiment": "Toxicity in C57 mouse assessed as effect in spleen pathology at 5 to 10 mg/kg administered continuously for 2 weeks by H and E staining based analysis", "assay_type": "organism-based", "settings": "in vivo, 336 h, dose 5-10 mg/kg"}, "Mus musculus [9]": {"tested_on": "Mus musculus", "experiment": "Antidepressant activity in reserpine induced depressive mouse model assessed as 5-HT level in brain at 5 mg/kg preadministered with reserpine for 3 days followed by compound addition from day 4 to 10 by LC-MS analysis (reference value: 186.46 ng/ml)", "assay_type": "functional", "settings": "time 7 day"}, "Mus musculus [10]": {"tested_on": "Mus musculus", "experiment": "Upregulation of 5-HT level in mouse at 10 mg/kg", "assay_type": "functional, organism-based"}, "[11]": {"experiment": "Toxicity in C57 mouse assessed as effect on lung morphology at 5 to 10 mg/kg administered continuously for 2 weeks by H and E staining based analysis", "assay_type": "organism-based", "settings": "in vivo, 336 h, dose 5-10 mg/kg"}, "[12]": {"experiment": "Toxicity in C57 mouse assessed as necrosis in heart at 5 to 10 mg/kg administered continuously for 2 weeks by H and E staining based analysis", "assay_type": "organism-based", "settings": "in vivo, 336 h, dose 5-10 mg/kg"}, "[13]": {"experiment": "Toxicity in C57 mouse assessed as effect on lung pathology at 5 to 10 mg/kg administered continuously for 2 weeks by H and E staining based analysis", "assay_type": "organism-based", "settings": "in vivo, 336 h, dose 5-10 mg/kg"}, "[14]": {"experiment": "Toxicity in C57 mouse assessed as effect on heart pathology at 5 to 10 mg/kg administered continuously for 2 weeks by H and E staining based analysis", "assay_type": "organism-based", "settings": "in vivo, 336 h, dose 5-10 mg/kg"}, "Mus musculus [15]": {"tested_on": "Mus musculus", "experiment": "Antidepressant activity in chronic unpredictable mild stress induced depressive C57 mouse model assessed as appearance of well arranged neuronal cells in hippocampus at 5 to 10 mg/kg administered continuously for 2 weeks post 5 weeks of chronic unpredictable mild stress by H and E staining based analysis", "assay_type": "functional, organism-based", "settings": "dose 5-10 mg/kg"}, "Danio rerio [16]": {"tested_on": "Danio rerio", "experiment": "Antidepressant activity in reserpine-induced depressive zebrafish model assessed as increase in time spend in upper part at 0.5 to 1 uM preadministered with reserpine for 40 mins followed by compound administration and measured after 7 days by novel tank test", "assay_type": "functional, organism-based", "settings": "dose 0.5-1 µM, time 7.0 day"}, "[17]": {"experiment": "Toxicity in C57 mouse assessed as effect on kidney size at 5 to 10 mg/kg administered continuously for 2 weeks by H and E staining based analysis", "assay_type": "organism-based", "settings": "in vivo, 336 h, dose 5-10 mg/kg"}, "[18]": {"experiment": "Toxicity in C57 mouse assessed as effect on spleen structure at 5 to 10 mg/kg administered continuously for 2 weeks by H and E staining based analysis", "assay_type": "organism-based", "settings": "in vivo, 336 h, dose 5-10 mg/kg"}, "[19]": {"experiment": "Toxicity in C57 mouse assessed as effect on heart structure at 5 to 10 mg/kg administered continuously for 2 weeks by H and E staining based analysis", "assay_type": "organism-based", "settings": "in vivo, 336 h, dose 5-10 mg/kg"}, "Mus musculus [20]": {"tested_on": "Mus musculus", "experiment": "Antidepressant activity in chronic unpredictable mild stress induced depressive C57 mouse model assessed as decrease in SERT expression in brain at 5 to 10 mg/kg administered continuously for 2 weeks post 5 weeks of chronic unpredictable mild stress by Western blot analysis", "assay_type": "functional, organism-based", "settings": "dose 5-10 mg/kg"}, "Danio rerio [21]": {"tested_on": "Danio rerio", "experiment": "Antidepressant activity in reserpine-induced depressive zebrafish model assessed as increase in speed of movement at 0.5 to 1 uM preadministered with reserpine for 40 mins followed by compound administration and measured after 7 days by novel tank test", "assay_type": "functional, organism-based", "settings": "dose 0.5-1 µM, time 7.0 day"}, "[22]": {"experiment": "Toxicity in C57 mouse assessed as effect on liver morphology at 5 to 10 mg/kg administered continuously for 2 weeks by H and E staining based analysis", "assay_type": "organism-based", "settings": "in vivo, 336 h, dose 5-10 mg/kg"}, "[23]": {"experiment": "Toxicity in C57 mouse assessed as effect on spleen size at 5 to 10 mg/kg administered continuously for 2 weeks by H and E staining based analysis", "assay_type": "organism-based", "settings": "in vivo, 336 h, dose 5-10 mg/kg"}, "Danio rerio [24]": {"tested_on": "Danio rerio", "experiment": "Antidepressant activity in reserpine-induced depressive zebrafish model assessed as increase in total distance traveled at 0.5 to 1 uM preadministered with reserpine for 40 mins followed by compound administration and measured after 7 days by open field test", "assay_type": "functional, organism-based", "settings": "dose 0.5-1 µM, time 7.0 day"}, "[25]": {"experiment": "Toxicity in C57 mouse assessed as effect on liver structure at 5 to 10 mg/kg administered continuously for 2 weeks by H and E staining based analysis", "assay_type": "organism-based", "settings": "in vivo, 336 h, dose 5-10 mg/kg"}, "[26]": {"experiment": "Toxicity in C57 mouse assessed as effect on liver size at 5 to 10 mg/kg administered continuously for 2 weeks by H and E staining based analysis", "assay_type": "organism-based", "settings": "in vivo, 336 h, dose 5-10 mg/kg"}, "PC-12 [27]": {"tested_on": "PC-12", "experiment": "Neuroprotective activity against corticosterone-induced cell injury in rat PC-12 cells assessed as increase in cell viability at 0.1 to 1 uM incubated for 24 hrs by CCK8 assay", "assay_type": "functional, cell-based", "settings": "dose 0.1-1 µM"}, "[28]": {"experiment": "Toxicity in C57 mouse assessed as necrosis in lungs at 5 to 10 mg/kg administered continuously for 2 weeks by H and E staining based analysis", "assay_type": "organism-based", "settings": "in vivo, 336 h, dose 5-10 mg/kg"}, "[29]": {"experiment": "Toxicity in C57 mouse assessed as effect on liver pathology at 5 to 10 mg/kg administered continuously for 2 weeks by H and E staining based analysis", "assay_type": "organism-based", "settings": "in vivo, 336 h, dose 5-10 mg/kg"}, "Danio rerio [30]": {"tested_on": "Danio rerio", "experiment": "Antidepressant activity in reserpine-induced depressive zebrafish model assessed as increase in speed of movement at 0.5 to 1 uM preadministered with reserpine for 40 mins followed by compound administration and measured after 7 days by open field test", "assay_type": "functional, organism-based", "settings": "dose 0.5-1 µM, time 7.0 day"}, "[31]": {"experiment": "Toxicity in C57 mouse assessed as effect on heart size at 5 to 10 mg/kg administered continuously for 2 weeks by H and E staining based analysis", "assay_type": "organism-based", "settings": "in vivo, 336 h, dose 5-10 mg/kg"}, "[32]": {"experiment": "Toxicity in C57 mouse assessed as necrosis in liver at 5 to 10 mg/kg administered continuously for 2 weeks by H and E staining based analysis", "assay_type": "organism-based", "settings": "in vivo, 336 h, dose 5-10 mg/kg"}, "Mus musculus [33]": {"tested_on": "Mus musculus", "experiment": "Antidepressant activity in reserpine induced depressive mouse model assessed as 5-HT level in brain at 10 mg/kg preadministered with reserpine for 3 days followed by compound addition from day 4 to 10 by LC-MS analysis (reference value: 186.46 ng/ml)", "assay_type": "functional", "settings": "time 7 day"}, "Danio rerio [34]": {"tested_on": "Danio rerio", "experiment": "Antidepressant activity in reserpine-induced depressive zebrafish model assessed as reduction in immobility time at 0.5 to 1 uM preadministered with reserpine for 40 mins followed by compound administration and measured after 7 days by open field test", "assay_type": "functional, organism-based", "settings": "dose 0.5-1 µM, time 7.0 day"}, "[35]": {"experiment": "Toxicity in C57 mouse assessed as effect on heart morphology at 5 to 10 mg/kg administered continuously for 2 weeks by H and E staining based analysis", "assay_type": "organism-based", "settings": "in vivo, 336 h, dose 5-10 mg/kg"}}, "note": "Active and inactive are the calls of the source. The calls are words filed in the database; no cut-off is given here."}
{"molecule": "O=C1c2ccccc2-c2nccc3cc(OCCCO[N+](=O)[O-])cc1c23", "values": [{"measurement": "Activity", "setting": "Mus musculus [1]", "value": "Active"}, {"measurement": "Activity", "setting": "Mus musculus [2]", "value": "Active"}, {"measurement": "Activity", "setting": "Mus musculus [3]", "value": "Active"}, {"measurement": "Activity", "setting": "PC-12 [4]", "value": "Active"}, {"measurement": "Activity", "setting": "PC-12 [5]", "value": "Active"}, {"measurement": "Activity", "setting": "Danio rerio [6]", "value": "Active"}, {"measurement": "Activity", "setting": "[7]", "value": "Non-Toxic"}, {"measurement": "Activity", "setting": "[8]", "value": "Non-Toxic"}, {"measurement": "Activity", "setting": "Mus musculus [9]", "value": 508.39, "unit": "ng/mL"}, {"measurement": "Activity", "setting": "Mus musculus [10]", "value": "Active"}, {"measurement": "Activity", "setting": "[11]", "value": "Non-Toxic"}, {"measurement": "Activity", "setting": "[12]", "value": "Non-Toxic"}, {"measurement": "Activity", "setting": "[13]", "value": "Non-Toxic"}, {"measurement": "Activity", "setting": "[14]", "value": "Non-Toxic"}, {"measurement": "Activity", "setting": "Mus musculus [15]", "value": "Active"}, {"measurement": "Activity", "setting": "Danio rerio [16]", "value": "Active"}, {"measurement": "Activity", "setting": "[17]", "value": "Non-Toxic"}, {"measurement": "Activity", "setting": "[18]", "value": "Non-Toxic"}, {"measurement": "Activity", "setting": "[19]", "value": "Non-Toxic"}, {"measurement": "Activity", "setting": "Mus musculus [20]", "value": "Active"}, {"measurement": "Activity", "setting": "Danio rerio [21]", "value": "Active"}, {"measurement": "Activity", "setting": "[22]", "value": "Non-Toxic"}, {"measurement": "Activity", "setting": "[23]", "value": "Non-Toxic"}, {"measurement": "Activity", "setting": "Danio rerio [24]", "value": "Active"}, {"measurement": "Activity", "setting": "[25]", "value": "Non-Toxic"}, {"measurement": "Activity", "setting": "[26]", "value": "Non-Toxic"}, {"measurement": "Activity", "setting": "PC-12 [27]", "value": "Active"}, {"measurement": "Activity", "setting": "[28]", "value": "Non-Toxic"}, {"measurement": "Activity", "setting": "[29]", "value": "Non-Toxic"}, {"measurement": "Activity", "setting": "Danio rerio [30]", "value": "Active"}, {"measurement": "Activity", "setting": "[31]", "value": "Non-Toxic"}, {"measurement": "Activity", "setting": "[32]", "value": "Non-Toxic"}, {"measurement": "Activity", "setting": "Mus musculus [33]", "value": 643.87, "unit": "ng/mL"}, {"measurement": "Activity", "setting": "Danio rerio [34]", "value": "Active"}, {"measurement": "Activity", "setting": "[35]", "value": "Non-Toxic"}]}
